The values below come from patent US12576074B2, “Kits and methods for induction of cardioversion in subjects with atrial arrhythmias” (InCarda Therapeutics, Inc., priority 2020, dated 2026).

For data set [1], the target named is L-type calcium channels (ICaL), CaV1.2 channels (Homo sapiens, UniProt Q13936). The settings on record: cited from earlier work.
A further data set relates to Ito. The settings on record: value used in O'Hara-Rudy model; cited from earlier work.
For data set [2], the system named is Sinclair swine. As to the kind of experiment: Electrocardiograms after IV infusion in swine. Here is the method: After the animals were transferred to study, all animals were randomly assigned to treatment groups per the study design described below. This study was designed as a cross-over design with a minimum of 1-week washout between Treatment “A” and Treatment “B”. […] Electrocardiograms (EKGs) were performed prior to infusion and within 30 minutes of dose completion for both “A” and “B” treatments. Infusions were performed under sedation and anesthesia was maintained post-infusion for the duration of the blood collections. Blood was collected following TABLE 5 below: prior to infusion, halfway through infusion, and at 0, 2, 4, 6, 8, 10, 15, 30, 45, 60, and 120 minutes post-infusion completion for both treatment “A” and “B”.
Swine were sedated with target doses of 0.5 mg/kg of midazolam and 25 mg/kg of ketamine (actual doses ranging from […] and 24.83-25.33 mg/kg, respectively), with the exception of one animal which received half the target doses per veterinary instruction (0.26 mg/kg midazolam and 12.67 mg/kg ketamine). Animals were anesthetized with isoflurane (5% for induction, ˜0.5-3% for maintenance) via face mask inhalation for the duration of the infusion and blood collections. All anesthesia and monitoring of vital parameters were performed in accordance with ACL-2011.
All animals underwent an electrocardiogram (EKG) using the EMKA system. EKGs were collected prior to dosing (any time prior to each dose administration) and within 30 minutes completion of each infusion per TLE-2125, Physiological Data Collection for Large Animals Using the emkaPACK4g Acquisition System. ECG waveforms were quantitatively evaluated for heart rate (HR) and PR, QRS, and QT/QTc intervals using a validated ecgAUTO system (v3.5.5, emka TECHNOLOGIES, Paris, France). • QTcB (Bazett's)=QT/RR(1/2) • QTcF (Fridericia)=QT/RR(1/3) • QTcV (Van de Water)=QT−0.087 (RR−1000) Where RR=time between successive beats, measured in milliseconds.

Data set [3] concerns the target ryanodine receptor RyR2 (IRyR) (Homo sapiens, UniProt Q92736). The note with it: cited from earlier work.
Data set [4] relates to paroxysmal atrial fibrillation. The note with it: average population; cited from earlier work.
In the next data set the target is T1, IK1 (Homo sapiens, UniProt P63252).
T1 sequence (P63252 1-427): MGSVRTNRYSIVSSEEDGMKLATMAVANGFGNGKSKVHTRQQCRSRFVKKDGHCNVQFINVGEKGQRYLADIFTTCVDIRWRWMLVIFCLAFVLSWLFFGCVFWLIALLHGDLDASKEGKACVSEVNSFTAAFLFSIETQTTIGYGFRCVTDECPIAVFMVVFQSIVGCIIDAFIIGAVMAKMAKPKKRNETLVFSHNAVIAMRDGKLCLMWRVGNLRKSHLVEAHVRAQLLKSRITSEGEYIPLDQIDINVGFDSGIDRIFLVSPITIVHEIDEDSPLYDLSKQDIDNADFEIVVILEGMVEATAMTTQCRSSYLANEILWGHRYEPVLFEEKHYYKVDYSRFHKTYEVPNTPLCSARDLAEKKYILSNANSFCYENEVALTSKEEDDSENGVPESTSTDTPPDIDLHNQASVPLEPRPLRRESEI
The note with it: flecainide increases IK1; used to calculate Gk1; cited from earlier work.

Data set [5] has as its target cardiac voltage-gated sodium channels (Nav1.5 subtype), peak sodium current (Homo sapiens, UniProt Q14524). The settings on record: unbinding from bound sodium channels; cited from earlier work.
The conditions of data set [6]: cited from earlier work.
Data set [7] concerns ACh-mediated AF in isolated arterially-perfused canine right atrium. As to the kind of experiment: Termination of ACh-induced persistent AF in canine isolated coronary-perfused right atrial preparations (Series II). Details: species or system canine (Beagles). The settings on record: flecainide 1.5 μM, ibutilide 20 nM, ACh 0.5 μM.
Protocol: Experiments were performed using isolated arterially-perfused canine preparations consisting of right atrium with a rim of right ventricle. The hearts were from Beagles approximately 1 year of age and were stored in ice cold cardioplegic solution for approximately 40 minutes before experimentation.
During experiments, transmembrane action potential (AP) recordings (sampling rate 41 kHz) were obtained from the atrium and ventricle using floating glass microelectrodes (10-25 MΩ DC resistance). A pseudo-electrocardiogram (ECG) was recorded using two electrodes consisting of Ag/AgCl half cells placed in the Tyrode's solution, bathing the preparation, 1.0 to 1.2 cm from opposite ends of the atrial coronary-perfused preparations (FIG. 1). […] The diastolic threshold of excitation (DTE) was determined by increasing stimulus intensity in 0.01 mA steps starting from 0.1 mA, until a steady 1:1 activation was achieved. Post-repolarization refractoriness (PRR) was recognized when ERP exceeded APD90 in the ventricle and APD70 in atria. Ventricular ERP coincides with APD90, whereas atrial ERP generally coincides with APD70.
Ventricular electrical activity was monitored for the development of early afterdepolarizations (EADs) and torsade de pointes (TdP).
Stock solutions were made by dissolving test article dry powder in distilled water vehicle. […]
Data set [8] has as its system canine left ventricular wedge preparations. As to the kind of experiment: Canine left ventricular wedge preparation, repolarization/EAD sensitised (Series III). The settings on record: ibutilide 50 nM 40 min, then flecainide 1.5 μM 30 min added; 3 mM KCl. Here is the method: Drugs were administered in the order and concentrations specified in TABLE 4.
Canine left ventricular (LV) wedge preparations were excised from the same hearts used to obtain the right atrial preparations.
Panel A: Control. […] The numbers appearing under M APs indicate APD90 values, and those on the ECG recordings indicate QT interval values.

Data set [9] concerns Sinclair swine. As to the kind of experiment: Clinical observations and survival in swine. In kind it is in vivo. The note with it: two animals (one treatment A, one treatment B); deemed due to anesthesia. The text has this: All animals survived to study completion. Animals underwent clinical observations continuously while the animals are under anesthesia during, pre- and post-dosing through to final blood collection per TXP-1532, Pharmacologic and Toxicological Observations of Experimental Animals, and twice daily per ACL-1974 Receipt, Quarantine and Husbandry of Swine. […] One of the animals in question was during the high-dose treatment (“B”) and was intubated and provided oxygen under the direction of veterinary staff. The other animal was during the low-dose treatment (“A”) and returned to breathing normally without need of additional support. Both of these abnormal events were deemed due to anesthesia.
All animals survived to study completion with no definitive test article clinical observations.

Where [10] appears, read: Treatment A (flecainide 1 mg/kg, ibutilide 0.007 mg/kg or both, IV), individual animal.
[11] abbreviates: Treatment B (flecainide 2 mg/kg, ibutilide 0.014 mg/kg or both, IV), individual animal.

Several values for one entry are separate records, joined by “and”; a condition that tells them apart may be missing. Identical values can stand only once. Like-named read-outs stand apart in the source and are kept apart here.

ryanodine receptor RyR2 (IRyR), sequence (Q92736 whole entry): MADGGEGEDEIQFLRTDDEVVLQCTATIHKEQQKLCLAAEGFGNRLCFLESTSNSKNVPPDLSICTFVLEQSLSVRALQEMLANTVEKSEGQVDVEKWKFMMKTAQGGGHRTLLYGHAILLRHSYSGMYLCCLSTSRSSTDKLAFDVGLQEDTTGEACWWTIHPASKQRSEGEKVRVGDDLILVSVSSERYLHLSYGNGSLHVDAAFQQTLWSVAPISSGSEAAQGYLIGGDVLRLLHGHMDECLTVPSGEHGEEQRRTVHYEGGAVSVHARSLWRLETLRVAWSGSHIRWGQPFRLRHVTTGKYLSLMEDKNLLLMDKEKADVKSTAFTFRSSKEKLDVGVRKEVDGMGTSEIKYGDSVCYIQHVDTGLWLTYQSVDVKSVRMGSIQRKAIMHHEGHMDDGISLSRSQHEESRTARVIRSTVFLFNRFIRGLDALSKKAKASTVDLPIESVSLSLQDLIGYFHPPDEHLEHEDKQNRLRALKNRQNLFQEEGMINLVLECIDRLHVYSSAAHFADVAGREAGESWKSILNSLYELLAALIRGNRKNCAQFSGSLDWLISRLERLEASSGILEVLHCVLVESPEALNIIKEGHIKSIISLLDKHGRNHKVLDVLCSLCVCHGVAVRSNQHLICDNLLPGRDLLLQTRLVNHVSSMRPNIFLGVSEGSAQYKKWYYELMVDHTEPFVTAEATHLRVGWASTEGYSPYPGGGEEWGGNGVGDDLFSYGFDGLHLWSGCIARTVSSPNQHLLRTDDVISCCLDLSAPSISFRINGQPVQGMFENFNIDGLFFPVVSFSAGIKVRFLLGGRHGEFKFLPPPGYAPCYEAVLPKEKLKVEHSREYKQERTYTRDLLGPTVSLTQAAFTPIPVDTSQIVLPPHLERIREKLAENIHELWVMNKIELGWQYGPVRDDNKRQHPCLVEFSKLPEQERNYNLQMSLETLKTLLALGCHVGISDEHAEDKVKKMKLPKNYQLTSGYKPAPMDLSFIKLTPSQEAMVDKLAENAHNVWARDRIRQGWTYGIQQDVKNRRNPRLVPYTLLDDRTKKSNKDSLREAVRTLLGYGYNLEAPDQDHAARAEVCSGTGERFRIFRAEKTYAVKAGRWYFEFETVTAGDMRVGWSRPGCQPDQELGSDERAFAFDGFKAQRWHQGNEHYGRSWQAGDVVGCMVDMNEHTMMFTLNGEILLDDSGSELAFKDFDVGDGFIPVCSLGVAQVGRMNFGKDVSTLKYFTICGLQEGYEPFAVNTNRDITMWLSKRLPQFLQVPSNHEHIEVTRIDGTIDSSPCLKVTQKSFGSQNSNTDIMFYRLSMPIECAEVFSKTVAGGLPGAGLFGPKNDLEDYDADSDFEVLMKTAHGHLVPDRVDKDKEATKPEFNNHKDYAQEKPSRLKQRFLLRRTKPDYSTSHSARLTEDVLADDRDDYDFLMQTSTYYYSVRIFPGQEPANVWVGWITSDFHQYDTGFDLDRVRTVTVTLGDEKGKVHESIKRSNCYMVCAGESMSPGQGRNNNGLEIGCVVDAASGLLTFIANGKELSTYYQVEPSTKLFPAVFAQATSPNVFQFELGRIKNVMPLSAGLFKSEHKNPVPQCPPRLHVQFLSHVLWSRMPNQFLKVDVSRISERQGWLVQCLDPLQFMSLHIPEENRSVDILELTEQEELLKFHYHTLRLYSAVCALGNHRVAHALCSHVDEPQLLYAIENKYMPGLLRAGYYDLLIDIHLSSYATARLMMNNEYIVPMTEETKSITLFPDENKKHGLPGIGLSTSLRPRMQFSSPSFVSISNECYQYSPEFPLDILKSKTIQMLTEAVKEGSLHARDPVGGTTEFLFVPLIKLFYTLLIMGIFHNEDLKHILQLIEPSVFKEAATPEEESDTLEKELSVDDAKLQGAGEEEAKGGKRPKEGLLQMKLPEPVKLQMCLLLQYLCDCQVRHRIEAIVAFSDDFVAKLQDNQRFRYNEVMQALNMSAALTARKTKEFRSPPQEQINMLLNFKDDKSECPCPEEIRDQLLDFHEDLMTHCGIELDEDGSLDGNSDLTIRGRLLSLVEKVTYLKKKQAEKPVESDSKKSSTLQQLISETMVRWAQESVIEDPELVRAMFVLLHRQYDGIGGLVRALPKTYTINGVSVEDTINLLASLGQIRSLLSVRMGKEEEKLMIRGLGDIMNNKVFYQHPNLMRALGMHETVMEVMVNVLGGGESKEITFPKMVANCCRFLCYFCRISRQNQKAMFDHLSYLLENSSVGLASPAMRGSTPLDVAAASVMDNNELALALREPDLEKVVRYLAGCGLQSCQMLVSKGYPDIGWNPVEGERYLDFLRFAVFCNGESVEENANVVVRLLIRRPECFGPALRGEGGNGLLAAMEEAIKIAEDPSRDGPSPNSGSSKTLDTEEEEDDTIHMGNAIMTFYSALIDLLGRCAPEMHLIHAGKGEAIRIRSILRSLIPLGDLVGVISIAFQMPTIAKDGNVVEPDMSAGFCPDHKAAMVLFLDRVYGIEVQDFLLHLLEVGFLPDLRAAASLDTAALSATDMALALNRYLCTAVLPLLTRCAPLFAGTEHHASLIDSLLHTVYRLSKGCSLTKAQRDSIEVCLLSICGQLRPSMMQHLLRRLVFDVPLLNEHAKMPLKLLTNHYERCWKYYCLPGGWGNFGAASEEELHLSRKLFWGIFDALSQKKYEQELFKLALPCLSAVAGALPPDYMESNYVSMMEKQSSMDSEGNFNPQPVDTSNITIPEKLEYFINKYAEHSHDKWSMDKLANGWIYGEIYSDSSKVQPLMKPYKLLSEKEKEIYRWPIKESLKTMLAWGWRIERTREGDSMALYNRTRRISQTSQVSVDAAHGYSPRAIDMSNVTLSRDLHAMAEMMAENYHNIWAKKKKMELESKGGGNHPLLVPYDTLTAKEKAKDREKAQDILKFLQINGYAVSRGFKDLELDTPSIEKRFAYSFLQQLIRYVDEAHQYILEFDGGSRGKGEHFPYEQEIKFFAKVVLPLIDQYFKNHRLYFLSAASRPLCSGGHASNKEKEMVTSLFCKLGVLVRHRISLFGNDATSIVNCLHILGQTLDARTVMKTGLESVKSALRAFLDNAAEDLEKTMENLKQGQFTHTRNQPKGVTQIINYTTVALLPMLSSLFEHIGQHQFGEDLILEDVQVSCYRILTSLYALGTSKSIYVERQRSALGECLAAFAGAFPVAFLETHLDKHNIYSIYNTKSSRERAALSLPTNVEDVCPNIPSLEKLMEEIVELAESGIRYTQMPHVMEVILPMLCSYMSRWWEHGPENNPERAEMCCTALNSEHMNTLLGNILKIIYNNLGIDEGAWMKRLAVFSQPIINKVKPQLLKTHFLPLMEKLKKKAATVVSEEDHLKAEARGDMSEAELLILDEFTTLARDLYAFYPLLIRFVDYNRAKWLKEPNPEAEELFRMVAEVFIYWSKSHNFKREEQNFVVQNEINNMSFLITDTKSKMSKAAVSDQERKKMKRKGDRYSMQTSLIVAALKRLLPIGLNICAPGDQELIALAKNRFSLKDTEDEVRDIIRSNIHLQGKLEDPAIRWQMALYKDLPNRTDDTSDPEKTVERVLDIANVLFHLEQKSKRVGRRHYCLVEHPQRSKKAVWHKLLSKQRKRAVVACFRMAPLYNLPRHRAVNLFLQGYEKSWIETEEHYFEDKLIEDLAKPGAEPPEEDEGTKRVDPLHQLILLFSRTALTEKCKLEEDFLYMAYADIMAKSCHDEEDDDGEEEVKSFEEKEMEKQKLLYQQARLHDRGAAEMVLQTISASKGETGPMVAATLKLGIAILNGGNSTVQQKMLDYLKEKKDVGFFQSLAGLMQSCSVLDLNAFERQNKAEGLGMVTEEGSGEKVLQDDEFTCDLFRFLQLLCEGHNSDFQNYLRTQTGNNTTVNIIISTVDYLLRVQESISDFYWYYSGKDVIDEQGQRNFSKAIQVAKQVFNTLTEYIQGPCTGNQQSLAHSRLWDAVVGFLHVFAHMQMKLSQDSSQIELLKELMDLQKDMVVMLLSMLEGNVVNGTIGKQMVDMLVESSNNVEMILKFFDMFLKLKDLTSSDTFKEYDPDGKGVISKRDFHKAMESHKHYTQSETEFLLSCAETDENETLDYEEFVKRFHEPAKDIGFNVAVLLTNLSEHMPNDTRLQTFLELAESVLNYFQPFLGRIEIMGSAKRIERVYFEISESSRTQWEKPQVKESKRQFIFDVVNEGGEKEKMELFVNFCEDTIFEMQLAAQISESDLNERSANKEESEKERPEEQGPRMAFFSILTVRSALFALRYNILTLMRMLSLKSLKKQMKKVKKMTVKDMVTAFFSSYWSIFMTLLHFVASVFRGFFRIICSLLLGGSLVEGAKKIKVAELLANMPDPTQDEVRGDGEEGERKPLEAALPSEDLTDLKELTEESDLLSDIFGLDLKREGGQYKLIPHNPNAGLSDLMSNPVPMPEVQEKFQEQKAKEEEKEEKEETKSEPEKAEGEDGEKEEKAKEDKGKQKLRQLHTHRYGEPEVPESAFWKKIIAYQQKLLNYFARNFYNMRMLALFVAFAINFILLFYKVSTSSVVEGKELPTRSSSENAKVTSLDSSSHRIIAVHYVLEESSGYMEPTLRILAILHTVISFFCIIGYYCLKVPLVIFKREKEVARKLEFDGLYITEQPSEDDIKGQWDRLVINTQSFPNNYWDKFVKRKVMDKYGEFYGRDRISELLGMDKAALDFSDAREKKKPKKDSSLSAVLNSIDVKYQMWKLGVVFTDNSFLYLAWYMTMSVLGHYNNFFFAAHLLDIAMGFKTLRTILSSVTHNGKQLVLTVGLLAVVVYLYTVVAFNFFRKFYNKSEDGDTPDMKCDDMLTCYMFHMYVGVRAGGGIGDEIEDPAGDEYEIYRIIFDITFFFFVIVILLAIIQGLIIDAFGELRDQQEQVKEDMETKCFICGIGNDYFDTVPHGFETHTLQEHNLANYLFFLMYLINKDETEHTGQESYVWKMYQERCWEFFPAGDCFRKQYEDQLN

Take `[Mg+2]` [Mg^2+]: the entries for the “decrease in ICaL” value in data set [1] (ICaL stimulated by cAMP (beta-adrenergic agonists)) and in data set [1] (basal conditions) were “about 63%” and “about 26%”, respectively.

For orientation: EC50 means the concentration needed to bring the measured effect to its halfway point. Take `O=C(NCC1CCCCN1)c1cc(OCC(F)(F)F)ccc1OCC(F)(F)F` (stereo not drawn) [Flecainide, N-(piperidin-2-ylmethyl)-2,5-bis(2,2,2-trifluoroethoxy)benzamide]: in the data set with Ito, the IC50 was 15.2 µM. Further, in the data set on Sinclair swine [2] (setting [10]), the “Avg ATcV, baseline-normalized post-infusion” value was −4.4% and −6.0% and −2.6%; the “Avg HR, baseline-normalized post-infusion” value was −7.2% and −26.5% and −9.6%; the “Avg PR, baseline-normalized post-infusion” value was 22.3% and 17.5% and 8.6%; the “Avg QRS, baseline-normalized post-infusion” value is 0.1% and −1.3% and 3.5%. Also, in the data set on Sinclair swine [2] (setting [10]), the “Avg QT, baseline-normalized post-infusion” value is −3.5% and −1.6% and −1.4%; the “Avg QTcB, baseline-normalized post-infusion” value was −7.1% and −15.7% and −6.3%; the “Avg QTcF, baseline-normalized post-infusion” value is −5.9% and −11.2% and −4.7%. In the data set with Sinclair swine [2] (Treatment A, group mean), the “Avg ATcV, baseline-normalized post-infusion” value is recorded as −4.3%; the “Avg HR, baseline-normalized post-infusion” value was −14.5%; the “Avg PR, baseline-normalized post-infusion” value was found to be 16.1%; the “Avg QRS, baseline-normalized post-infusion” value is 0.7%. Besides, in the data set on Sinclair swine [2] (Treatment A, group mean), the “Avg QT, baseline-normalized post-infusion” value is recorded as −2.2%; the “Avg QTcB, baseline-normalized post-infusion” value is −9.7%; the “Avg QTcF, baseline-normalized post-infusion” value is recorded as −7.3%. In the data set on Sinclair swine [2] (setting [11]), the “Avg ATcV, baseline-normalized post-infusion” value was 11.4% and −2.3% and −1.9%; the “Avg HR, baseline-normalized post-infusion” value is 0.4% and −18.8% and −13.6%; the “Avg PR, baseline-normalized post-infusion” value is 13.3% and 9.7% and 24.6%; the “Avg QRS, baseline-normalized post-infusion” value was 4.4% and 3.3% and 18.2%. Moreover, in the data set on Sinclair swine [2] (setting [11]), the “Avg QT, baseline-normalized post-infusion” value is 12.6% and 2.1% and 0.1%; the “Avg QTcB, baseline-normalized post-infusion” value is 12.8% and −8.0% and −6.9%; the “Avg QTcF, baseline-normalized post-infusion” value is 12.7% and −4.7% and −4.6%. Besides, in the data set on Sinclair swine [2] (Treatment B, group mean), the “Avg ATcV, baseline-normalized post-infusion” value was 2.4%; the “Avg HR, baseline-normalized post-infusion” value is recorded as −10.7%; the “Avg PR, baseline-normalized post-infusion” value came to 15.8%; the “Avg QRS, baseline-normalized post-infusion” value was determined as 8.7%. Besides, in the data set on Sinclair swine [2] (Treatment B, group mean), the “Avg QT, baseline-normalized post-infusion” value amounted to 4.9%; the “Avg QTcB, baseline-normalized post-infusion” value is recorded as −0.7%; the “Avg QTcF, baseline-normalized post-infusion” value is 1.1%. The IC50 in data set [3] (read-out: potency for inhibition of RyR2) is ~20 µM. Also, the IC50 in data set [3] (value used in O'Hara-Rudy model, read-out: IC50 IRyR) is 20 µM. For the same compound, the “patients with paroxysmal atrial fibrillation exhibiting resistance to monotherapy” value in data set [4] is on record as “approximately 30%”. Besides, at IK1, the EC50 is 0.4 µM. In addition, the “unbinding time τoff” value in [5] is “≈ 20.5 sec”.

With `CCCCCCCCCCCCCCCC(=O)OC[C@H](COP(=O)([O-])OCC[N+](C)(C)C)OC(=O)CCCCCCCCCCCCCCC` [DPPC, dipalmitoylphosphatidylcholine], in [6], the solubility in water result is “about 10^−10 mol/L”.

For the compound `CCCCCCCN(CC)CCCC(O)c1ccc(NS(C)(=O)=O)cc1` (stereo not drawn) [Ibutilide, N-(4-(4-(ethyl(heptyl)amino)-1-hydroxybutyl)phenyl)methanesulfonamide], the “termination of ACh-induced persistent AF (preparations terminated out of tested)” value in [7] was 1 out of 3. For the same compound, in the data set with Sinclair swine [2] (setting [10]), the “Avg ATcV, baseline-normalized post-infusion” value was 14.4% and 10.5% and 5.0%; the “Avg HR, baseline-normalized post-infusion” value is −19.5% and −54.7% and −28.7%; the “Avg PR, baseline-normalized post-infusion” value is 4.8% and 40.7% and 7.1%; the “Avg QRS, baseline-normalized post-infusion” value is 8.2% and 7.3% and 4.9%. Also, in the data set with Sinclair swine [2] (setting [10]), the “Avg QT, baseline-normalized post-infusion” value was 19.9% and 28.1% and 11.7%; the “Avg QTcB, baseline-normalized post-infusion” value is 7.5% and −13.4% and −5.8%; the “Avg QTcF, baseline-normalized post-infusion” value is 11.5% and −1.4% and −0.3%. Moreover, in the data set on Sinclair swine [2] (Treatment A, group mean), the “Avg ATcV, baseline-normalized post-infusion” value stood at 10.0%; the “Avg HR, baseline-normalized post-infusion” value is −34.3%; the “Avg PR, baseline-normalized post-infusion” value was 17.5%; the “Avg QRS, baseline-normalized post-infusion” value came to 6.8%. Further, in the data set on Sinclair swine [2] (Treatment A, group mean), the “Avg QT, baseline-normalized post-infusion” value stood at 19.9%; the “Avg QTcB, baseline-normalized post-infusion” value was −3.9%; the “Avg QTcF, baseline-normalized post-infusion” value was 3.3%. For the same compound, in the data set with Sinclair swine [2] (setting [11]), the “Avg ATcV, baseline-normalized post-infusion” value is 16.1% and 13.1% and 13.6%; the “Avg HR, baseline-normalized post-infusion” value is −38.3% and −12.7% and −15.4%; the “Avg PR, baseline-normalized post-infusion” value was 28.2% and 2.9% and 14.7%; the “Avg QRS, baseline-normalized post-infusion” value was 7.7% and 16.8% and 6.5%. For the same compound, in the data set with Sinclair swine [2] (setting [11]), the “Avg QT, baseline-normalized post-infusion” value is 26.6% and 16.3% and 18.3%; the “Avg QTcB, baseline-normalized post-infusion” value was −0.6% and 8.5% and 8.9%; the “Avg QTcF, baseline-normalized post-infusion” value was 7.8% and 11.0% and 11.9%. In the data set on Sinclair swine [2] (Treatment B, group mean), the “Avg ATcV, baseline-normalized post-infusion” value is recorded as 14.3%; the “Avg HR, baseline-normalized post-infusion” value is on record as −22.1%; the “Avg PR, baseline-normalized post-infusion” value worked out at 15.3%; the “Avg QRS, baseline-normalized post-infusion” value was determined as 10.3%. In addition, in the data set with Sinclair swine [2] (Treatment B, group mean), the “Avg QT, baseline-normalized post-infusion” value amounted to 20.4%; the “Avg QTcB, baseline-normalized post-infusion” value is on record as 5.6%; the “Avg QTcF, baseline-normalized post-infusion” value came out at 10.3%. Moreover, the “QT/QTc (QTcV) change post-infusion” value in the data set on Sinclair swine [2] (treatments A/B) was “increased”. Moreover, the “effect on repolarization (QT interval, Tpeak-Tend)” value in [8] is given as “significantly prolonged repolarization”. In the data set on Sinclair swine [9], the abnormal clinical observations result is reported as “stopped breathing under anesthesia”.
